Results on 11 molecules are retold here after PMC6017749, “Exploring N-acyl-4-azatetracyclo[5.3.2.0^2,6.0^8,10]dodec-11-enes as 11β-HSD1 Inhibitors” (Molecules : A Journal of Synthetic Chemistry and Natural …, 2018).

Where “and” joins values, the source holds several entries; their conditions need not be identical. Equal entries are not always repeated.

Data set [1] has as its target T1, human 11β-HSD1 (Homo sapiens, UniProt P28845).
T1 construct: The assay uses human liver microsomes (HLM), where the enzyme is expressed; tissue Celsis In-vitro Technologies; host or cells: mixed sex human liver microsomes
The data set is described as follows: 11β-HSD1 enzyme inhibition assay in human liver microsomes (3H-cortisone to 3H-cortisol, SPA). The format is biochemical. As to conditions: for inhibition at 10 µM: read-out: hHSD1 % inh at 10 µM; for IC50: read-out: hHSD1 IC50. On the procedure: A preliminary screen was performed using a human microsome assay with compounds at 10 µM in order to assess their potential inhibition of the target enzyme (Table 2). Percentage of inhibition was determined by measuring the conversion of ^3H-cortisone to ^3H-cortisol by capturing liberated ^3H-cortisol on anti-cortisol (HyTest Ltd., Turku, Finland)-coated scintillation proximity assay beads. The assay uses human liver microsomes (HLM), where the enzyme is expressed, and NADPH as the cofactor needed by the enzyme. Eight of the thirteen new compounds presented 100% inhibition of the human 11β-HSD1 in this single concentration assay, so dose-response curves were performed to get their IC50 values.
11β-HSD1 activity was determined in mixed sex, human liver microsomes (HLM, Celsis In-vitro Technologies) by measuring the conversion of ^3H-cortisone to ^3H-cortisol. Percentage inhibition was determined relative to a no inhibitor control. An amount of 5 μg of HLM were pre-incubated at 37 °C for 15 min with inhibitor and 1 mM NADPH in a final volume of 90 μL Krebs buffer. 10 μL of 200 nM ^3H-cortisone was then added followed by incubation at 37 °C for a further 30 min. The assay was terminated by rapid freezing on dry ice and ^3H-cortisone to ^3H-cortisol conversion determined in 50 μL of the defrosted reaction by capturing liberated ^3H-cortisol on anti-cortisol (HyTest Ltd)-coated scintillation proximity assay beads (protein A-coated YSi, GE Healthcare). Reported values are the average of 1–3 measurements. A nanomolar 11β-HSD1 inhibitor, UE2316, was added as a positive control within in each set of assays.
In general terms: Microsomes from liver hold many membrane-bound enzymes, among them those of drug oxidation.

Data set [2] has as its target T1, human 11β-HSD1. The data set is described as follows: Cellular 11β-HSD1 enzyme inhibition assay (HEK293 stably transfected, cortisol by LC/MS). It counts as cell-based. The note with it: for inhibition at 10 µM: HEK293 transfected with human 11β-HSD1, read-out: HEK hHSD1 % inh at 10 µM. As for the experimental part: Those compounds with submicromolar IC50 values (4, 6, 8, 9 and 16) were further evaluated in terms of cellular potency, selectivity over 11β-HSD2, and metabolic stability as follows (Table 2, 5th, 6th, and 7th column, respectively). Cellular potency was assessed using Human Embryonic Kidney 293 (HEK293) cells stably transfected with the 11β-HSD1 gene. Cells were incubated with substrate (cortisone) and percentage of inhibition was determined by measuring the conversion of cortisone to cortisol by LC/MS. The results were in line with the previous results obtained in the microsomal assay.
The cellular 11β-HSD1 enzyme inhibition assay was performed using HEK293 cells stably transfected with the human 11β-HSD1 gene. Cells were incubated with substrate (cortisone) and product (cortisol) was determined by LC/MS. Cells were plated at 2 × 10^4 cells/well in a 96-well poly-D-lysine coated tissue culture microplate (Greiner Bio-one, Monroe, NC, USA) and incubated overnight at 37 °C in 5% CO2 […]. Compounds to be tested were solubilized in 100% dimethylsulfoxide (DMSO) at 10 mM and serially diluted in water and 10% DMSO to final concentration of 10 µM in 10% DMSO. Then 10 µL of each test dilution and 10 µL of 10% DMSO (for low and high control) were dispensed into the well of a new 96-well microplate (Greiner Bio-one). Medium was removed from the cell assay plate and 100 µL of Dulbecco’s Modified Eagle’s Medium DMEM solution (containing 1% penicillin, 1% streptomycin and 300 nM cortisone) added to each well. Cells were incubated for 2 h at 37 °C in 5% CO2 […]. Following incubation, medium was removed from each well into an Eppendorf containing 500 µL of ethyl acetate, mixed by vortex and incubated at r.t. for 5 min. A calibration curve of known concentrations of cortisol in assay medium was also set up and added to 500 µL of ethyl acetate, vortexed and incubated as above. The supernatant of each Eppendorf was removed to a 96-deep-well plate and dried down under […] at 65 °C. Each well was solubilized in 100 µL 70:30 H2O:acetonitrile (ACN) and removed to a 96-well V-bottomed plate for LC/MS analysis. Separation was carried out on a Sunfire 150 × 2.1 mm, […] column using a H2O:ACN gradient profile. Typical retention times were 2.71 min for cortisol and 2.80 min for cortisone. The peak area was calculated and the concentration of each compound determined from the calibration curve. Reported values are the average of 1–3 measurements.

The nature of data set [3]: Microsomal stability assay in human liver microsomes. The format is in vitro ADME. The note with it: remaining compound after 30-min incubation in HLM. On the procedure:
(§1) Selectivity over 11β-HSD2 was also assessed in a cell-based assay using the same methodology as before (HEK293 stably transfected with the 11β-HSD2 gene). […] Finally, metabolic stability was determined using HLM, which are widely used to predict the degree of primary metabolic clearance in the liver. Each compound was incubated over 30 min with HLM and the percentage of remaining compound after this incubation period was determined by calculating compound concentration after and before by LC/MS.
The microsomal stability of each compound was determined using human liver microsomes (HLM, Celsis In-vitro Technologies, Baltimore, MD, USA). Microsomes were thawed and diluted to a concentration of 2 mg/mL in 50 mM sodium phosphate buffer pH 7.4. Each compound was diluted in 4 mM NADPH (made in the phosphate buffer above) to a concentration of 10 µM. Two identical incubation plates were prepared to act as a 0 min and a 30 min time point assay. 30 µL of each compound dilution was added in duplicate to the wells of a U-bottom 96-well plate and warmed at 37 °C for approximately 5 min. Verapamil, lidocaine, and propranolol at 10 µM concentration were utilized as reference compounds in this experiment. Microsomes were also pre-warmed at 37 °C before the addition of 30 µL to each well of the plate resulting in a final concentration of 1 mg/mL. The reaction was terminated at the appropriate time point (0 or 30 min) by addition of 60 µL of ice-cold 0.3 M trichloroacetic acid (TCA) per well. The plates were centrifuged for 10 min at 112× g and the supernatant fraction transferred to a fresh U-bottom 96-well plate. Plates were sealed and frozen at −20 °C prior to MS analysis. LC-MS/MS was used to quantify the peak area response of each compound before and after incubation with HLM using MS tune settings established and validated for each compound. These peak intensity measurements were used to calculate the percentage remaining after incubation with HLM for each hit compound. Reported values are the average of 1–3 measurements.

Data set [4] concerns the target T2, human 11β-HSD2 (Homo sapiens, UniProt P80365).
T2 construct: stably transfected with the full-length gene coding for human 11β-HSD2; expressed in transfected cells; host or cells: HEK293
T2 sequence (P80365 1-405): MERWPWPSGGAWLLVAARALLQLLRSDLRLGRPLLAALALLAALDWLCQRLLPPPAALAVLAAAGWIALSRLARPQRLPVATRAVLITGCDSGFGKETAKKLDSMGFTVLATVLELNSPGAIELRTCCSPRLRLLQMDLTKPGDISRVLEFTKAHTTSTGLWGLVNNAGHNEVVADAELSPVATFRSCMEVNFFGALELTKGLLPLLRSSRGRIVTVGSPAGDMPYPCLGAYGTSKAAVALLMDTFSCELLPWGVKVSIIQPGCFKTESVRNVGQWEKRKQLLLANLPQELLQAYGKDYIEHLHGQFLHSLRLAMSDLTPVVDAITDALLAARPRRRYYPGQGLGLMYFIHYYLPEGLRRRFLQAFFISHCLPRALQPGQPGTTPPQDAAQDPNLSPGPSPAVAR
The data set is described as follows: Cellular 11β-HSD2 enzyme inhibition assay (HEK293 stably transfected). The format is cell-based. The note with it: for inhibition at 10 µM: HEK293, 10 µM, read-out: HEK hHSD2 % inh at 10 µM. On the procedure: as §1
For measurement of inhibition of 11β-HSD2, HEK293 cells stably transfected with the full-length gene coding for human 11β-HSD2 were used. The protocol was the same as for the cellular 11β-HSD1 enzyme inhibition assay, only changing the substrate, this time cortisol, and the concentrations of the tested compounds, 10, 1, and 0.1 µM. Reported values are the average of 1–3 measurements.

Where [5] appears, read: 10 µM, human liver microsomes, relative to no inhibitor control.
[6] abbreviates: HEK293 transfected with human 11β-HSD2.

T1 sequence (P28845 whole entry): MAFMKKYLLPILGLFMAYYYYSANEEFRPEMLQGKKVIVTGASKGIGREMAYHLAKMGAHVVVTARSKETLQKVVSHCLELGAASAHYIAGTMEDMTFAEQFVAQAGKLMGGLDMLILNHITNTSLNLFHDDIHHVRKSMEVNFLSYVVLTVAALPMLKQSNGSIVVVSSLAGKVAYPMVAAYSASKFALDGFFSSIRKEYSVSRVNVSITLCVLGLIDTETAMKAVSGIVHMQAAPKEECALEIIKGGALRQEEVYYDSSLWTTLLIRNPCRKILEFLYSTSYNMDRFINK

For orientation: IC50 means the midpoint of a concentration-inhibition curve. As usually defined, the melting point is the temperature of the solid-liquid transition. Molecule `O=C(c1ccc(N2CCN(c3ccccc3)CC2)nc1)N1CC2C3C=CC(C4CC34)C2C1` (stereo not drawn) [Compound 14, (4-Azatetracyclo[5.3.2.0^2,6.0^8,10]dodec-11-en-4-yl)[6-(4-phenylpiperazin-1-yl)pyridin-3-yl]methanone] yielded a melting point of 90 to 91 °C. Besides, in data set [1] (setting [5]), the inhibition at 10 µM was 100%. Besides, the 50% inhibitory concentration (IC50) in data set [1] (human liver microsomes) amounted to 5.44 µM.
`CC(C)(C)C(=O)N1CC2C3C=CC(C4CC34)C2C1` (stereo not drawn) [Compound 6, (4-Azatetracyclo[5.3.2. 0^2,6.0^8,10]dodec-11-en-4-yl)(tert-butyl)methanone] showed a melting point of 91 to 92 °C. The inhibition at 10 µM in data set [2] stood at 41%. The inhibition at 10 µM in data set [1] (setting [5]) came out at 100%. In data set [1] (human liver microsomes), the IC50 came out at 0.666 µM. The “HLM % Parent” value in data set [3] worked out at 60%. Moreover, the inhibition at 10 µM in data set [4] (setting [6]) turned out to be 71%.
Molecule `CN1CCC(C(=O)N2CC3C4C=CC(C5CC45)C3C2)CC1` (stereo not drawn) [Compound 12, (4-Azatetracyclo[5.3.2. 0^2,6.0^8,10]dodec-11-en-4-yl)(1-methylpiperidin-4-yl)methanone] came in with a melting point of 100 to 101 °C.
`N#Cc1ccc(N2CCN(c3ccc(C(=O)N4CC5C6C=CC(C7CC67)C5C4)cn3)CC2)cc1` (stereo not drawn) [Compound 16, 4-[[4-[5-(4-Azatetracyclo[5.3.2. 0^2,6.0^8,10]dodec-11-en-4-yl)carbonyl]pyridin-2-yl]piperazin-1-yl]benzonitrile] showed a melting point of 160 to 161 °C. Further, in data set [2] (HEK293 transfected with human 11β-HSD1), the “HEK hHSD1 % inh at 10 µM” value is recorded as “complete inhibition”. In addition, in data set [2], the inhibition at 10 µM was 100%. The inhibition at 10 µM in data set [1] (setting [5]) turned out to be 100%. The IC50 in data set [1] (human liver microsomes) turned out to be 0.377 µM. In data set [3], the “HLM % Parent” value came to 13%. In data set [4] (10 µM, HEK293 transfected with human 11β-HSD2), the “HEK hHSD2 % inh at 10 µM” value amounted to 53%. Moreover, in data set [4] (11β-HSD2 IC50 versus 11β-HSD1 IC50), the “selectivity index over 11β-HSD2” value is reported as 30 fold. Further, the inhibition at 10 µM in data set [4] (setting [6]) stood at 54%. Besides, the IC50 in data set [4] (inferred from 54% inhibition at 10 µM in HEK293 cells, read-out: IC50 against 11β-HSD2) is around 10 µM.
For the molecule `O=C(c1csc(-c2cn[nH]c2)c1)N1CCC(F)(c2ccccc2Cl)CC1` [UE2316, reference compound], in data set [1] (positive control within each set of assays, normal range per ref 20), the “IC50 of positive control” value was “within the normal range”.
As to `O=C(c1ccccn1)N1CC2C3C=CC(C4CC34)C2C1` (stereo not drawn) [Compound 5, (4-Azatetracyclo[5.3.2.0^2,6.0^8,10]dodec-11-en-4-yl)(pyridin-2-yl)methanone], the melting point lay in the range of 110 to 111 °C. In addition, the inhibition at 10 µM in data set [1] (setting [5]) was 100%. Moreover, in data set [1] (human liver microsomes), the IC50 was 4.3 µM and 4.27 µM.
In the case of `O=C(c1cccs1)N1CC2C3C=CC(C4CC34)C2C1` (stereo not drawn) [Compound 7, (4-Azatetracyclo[5.3.2.0^2,6.0^8,10]dodec-11-en-4-yl)(thien-2-yl)methanone], the melting point was 104 to 105 °C. Also, in data set [1] (setting [5]), the “hHSD1 % inh at 10 µM” value is reported as 49% and the inhibition at 10 µM was below 50%.
As to `CC(=O)N1CCC(C(=O)N2CC3C4C=CC(C5CC45)C3C2)CC1` (stereo not drawn) [Compound 13, 1-[[4-(4-Azatetracyclo[5.3.2. 0^2,6.0^8,10]dodec-11-en-4-yl)carbonyl]piperidin-1-yl]ethan-1-one], the melting point was 134 to 135 °C.
The molecule `O=C(c1ccc(Cl)nc1)N1CC2C3C=CC(C4CC34)C2C1` (stereo not drawn) [Compound 10, (4-Azatetracyclo[5.3.2. 0^2,6.0^8,10]dodec-11-en-4-yl) (6-chloropyridin-3-yl)methanone] came in with a melting point of 101 to 102 °C.
Regarding `O=C(c1ccc(N2CCN(c3ccc(C(F)(F)F)cc3)CC2)nc1)N1CC2C3C=CC(C4CC34)C2C1` (stereo not drawn) [Compound 15, (4-Azatetracyclo[5.3.2.0^2,6.0^8,10]dodec-11-en-4-yl)[6-[4-(4-trifluoromethyl)phenylpiperazin-1-yl]pyridin-3-yl]methanone], the melting point lay in the range of 157 to 158 °C. In data set [1] (setting [5]), the inhibition at 10 µM was determined as 100%. For the same molecule, the IC50 in data set [1] (human liver microsomes) was determined as 11.6 µM.
With `O=C(c1ccnc(Cl)c1)N1CC2C3C=CC(C4CC34)C2C1` (stereo not drawn) [Compound 11, (4-Azatetracyclo[5.3.2. 0^2,6.0^8,10]dodec-11-en-4-yl)(2-chloropyridin-4-yl)methanone], the melting point was in the range of 135 to 136 °C.
